# Several values for one entry are separate records, joined by “and”; a condition that tells them apart may be missing. Identical values can stand only once. Like-named read-outs stand apart in the source and are kept apart here.
# Tests used:
# Test in all cases: MIC of compounds alone and combined with antibacterials, broth microdilution (CLSI)
# Assay type in all cases: cell-based
# [1] = system: Salmonella typhimurium (STY) isolates
# Method in brief: (§1)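 Log-phase isolates at final 5·10^5 CFU/mL in cation-adjusted Mueller-Hinton broth, incubated 16-20 h at 35° C in ambient air. MIC read visually as lowest concentration preventing growth, for compound alone and for antibacterial at each compound concentration.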
# [2] = system: Providencia rettgeri (PRE) isolates
# Method in brief: as §1
# [3] = system: Serratia marcescens (SMA) isolates
# Method in brief: as §1
# [4] = system: Klebsiella oxytoca (KOX) isolates; conditions: for MIC ATB in combination: AF1 @ 4 μg/mL
# Method in brief: as §1
smiles,measurement,setting,value
"CC1(C)S[C@@H]2[C@H](NC(=O)[C@H](N)c3ccc(O)cc3)C(=O)N2[C@H]1C(=O)O [AMX, Amoxicillin]",MIC ATB in combination,[1],128 µg/mL
same,MIC,"[1]; Salmonella enterica, TYPHIMURIUM, strain STY S3371 (OXA-1), ATB alone",> 256 µg/mL
same,MIC,"[1]; Salmonella enterica, TYPHIMURIUM, strain STY S3371 (OXA-1), CLA @ 4 μg/ml+ ATB",128 µg/mL
same,MIC ATB in combination,"[2]; PRE UFR99, AF1 @ 4 μg/mL",>512 µg/mL
same,MIC,"[2]; Providencia rettgeri, ATB combined with CLA @ 4 μg/ml, strain PRE UFR236 (TEM-1, OXA-48)",> 128 µg/mL
same,MIC,"[2]; Providencia rettgeri, strain PRE UFR99 (OXA-1, OXA-181), ATB alone",> 128 µg/mL
same,MIC,"[2]; Providencia rettgeri, strain PRE UFR99 (OXA-1, OXA-181), CLA @ 4 μg/ml+ ATB",> 128 µg/mL
same,MIC,"[2]; Providencia rettgeri, ATB alone, strain PRE UFR236 (TEM-1, OXA-48)",> 128 µg/mL
same,MIC ATB in combination,"[2]; strain PRE UFR236, antibacterial combined with AF1 @ 4 μg/mL",512 µg/mL
same,MIC,[3],128 µg/mL and >256 µg/mL
same,MIC ATB in combination,[3],128 µg/mL
same,MIC ATB in combination,"[3]; SMA UFR30, AF1 @ 4 μg/mL",256 µg/mL
same,MIC ATB in combination,"[3]; SMA UFR135, AF1 @ 4 μg/mL",256 µg/mL
same,MIC ATB in combination,"[3]; SMA UFR136, AF1 @ 4 μg/mL",256 µg/mL
same,MIC ATB in combination,"[3]; SMA UFR137, AF1 @ 4 μg/mL",64 µg/mL
same,MIC ATB in combination,"[3]; SMA UFR138, AF1 @ 4 μg/mL",64 µg/mL
same,MIC ATB in combination,"[3]; SMA UFR139, AF1 @ 4 μg/mL",64 µg/mL
same,MIC ATB in combination,"[3]; SMA UFR143, AF1 @ 4 μg/mL",256 µg/mL
same,MIC ATB in combination,"[3]; SMA UFR239, AF1 @ 4 μg/mL",64 µg/mL
same,MIC,[3]; Serratia marcescens,> 128 µg/mL
same,MIC,"[3]; Serratia marcescens, strain SMA UFR239 (ESAC), CLA @ 4 μg/ml+ ATB, read-out: MIC",64 µg/mL
same,MIC ATB in combination,[4]; KOX UFR21,256 µg/mL
same,MIC ATB in combination,[4]; KOX UFR173,4 µg/mL
same,MIC ATB in combination,[4]; KOX UFR223,16 µg/mL
same,MIC ATB in combination,[4]; KOX UFR224,64 µg/mL
same,MIC,[4]; Klebsiella oxytoca,> 128 µg/mL
same,MIC,"[4]; Klebsiella oxytoca, strain KOX UFR21 (TEM-1, CTX-M-15, OXA-48), ATB alone",> 256 µg/mL
same,MIC,"[4]; Klebsiella oxytoca, strain KOX UFR21 (TEM-1, CTX-M-15, OXA-48), CLA @ 4 μg/ml+ ATB",> 128 µg/mL
same,MIC,"[4]; Klebsiella oxytoca, strain KOX UFR223 (SHV-11, OXA-48), ATB alone",> 128 µg/mL
same,MIC,"[4]; Klebsiella oxytoca, strain KOX UFR223 (SHV-11, OXA-48), CLA @ 4 μg/ml+ ATB",> 128 µg/mL
same,MIC,"[4]; Klebsiella oxytoca, strain KOX UFR224 (CTX-M-15, OXA-48), ATB alone",> 128 µg/mL
same,MIC,"[4]; Klebsiella oxytoca, strain KOX UFR224 (CTX-M-15, OXA-48), CLA @ 4 μg/ml+ ATB",> 128 µg/mL
NC(=O)[C@@H]1CC[C@@H]2CN1C(=O)N2OC(F)(F)C(=O)[O-].[Na+] [EA1],MIC,"[1]; STY S3371, alone",>32 µg/mL
same,MIC,"[2]; PRE UFR99, alone",32 µg/mL
same,MIC,"[2]; strain PRE UFR236, compound alone",>32 µg/mL
same,MIC,"[3]; SMA UFR30, alone",>32 µg/mL
same,MIC,"[3]; SMA UFR134, alone",>32 µg/mL
same,MIC,"[3]; SMA UFR135, alone",>32 µg/mL
same,MIC,"[3]; SMA UFR136, alone",>32 µg/mL
same,MIC,"[3]; SMA UFR137, alone",>32 µg/mL
same,MIC,"[3]; SMA UFR138, alone",>32 µg/mL
same,MIC,"[3]; SMA UFR139, alone",>32 µg/mL
same,MIC,"[3]; SMA UFR141, alone",>32 µg/mL
same,MIC,"[3]; SMA UFR142, alone",>32 µg/mL
same,MIC,"[3]; SMA UFR143, alone",64 µg/mL
same,MIC,"[3]; SMA UFR239, alone",>32 µg/mL
same,MIC,"[3]; strain SMA UFR238, compound alone",>32 µg/mL
same,MIC,"[4]; KOX UFR21, alone",>32 µg/mL
same,MIC,"[4]; KOX UFR173, alone",>32 µg/mL
same,MIC,"[4]; KOX UFR223, alone",>32 µg/mL
same,MIC,"[4]; KOX UFR224, alone",>32 µg/mL

# Reference: patent publication US20200017496A1 (priority 2017, published 2020)
